Measured values published in PMC7983170 (Biochemical pharmacology, 2018).

Target: T1, ABCG2 (Homo sapiens, UniProt Q9UNQ0)
T1 sequence (Q9UNQ0 1-655): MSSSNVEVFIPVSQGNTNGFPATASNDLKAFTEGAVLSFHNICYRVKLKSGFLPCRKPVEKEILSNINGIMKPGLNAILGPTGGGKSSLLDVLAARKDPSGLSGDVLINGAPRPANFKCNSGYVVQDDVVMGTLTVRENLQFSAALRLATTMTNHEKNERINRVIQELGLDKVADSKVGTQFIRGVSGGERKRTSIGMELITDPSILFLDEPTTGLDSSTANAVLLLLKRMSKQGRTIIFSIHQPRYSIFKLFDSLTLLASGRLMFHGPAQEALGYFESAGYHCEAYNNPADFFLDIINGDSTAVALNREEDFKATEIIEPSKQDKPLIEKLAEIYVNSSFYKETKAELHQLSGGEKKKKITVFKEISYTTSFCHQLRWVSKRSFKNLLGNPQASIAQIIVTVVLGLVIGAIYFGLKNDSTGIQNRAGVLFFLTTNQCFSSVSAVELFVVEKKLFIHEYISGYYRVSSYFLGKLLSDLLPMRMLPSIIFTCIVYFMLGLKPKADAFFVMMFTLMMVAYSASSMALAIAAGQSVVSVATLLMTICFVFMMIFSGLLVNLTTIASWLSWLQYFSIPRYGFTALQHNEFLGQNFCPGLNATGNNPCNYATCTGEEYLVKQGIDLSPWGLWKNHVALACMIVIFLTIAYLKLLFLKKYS
Test: stimulation of vanadate-sensitive ATPase activity in membrane vesicles
Format: biochemical

An EC50 of roughly 14.7 µM was found for `O=C(CCCCCCNC(=O)c1cnc(N(c2ccccc2)c2ccccc2)nc1)NO` [ricolinostat] in this work.
